# Target: T1, Casein Kinase Iε (Homo sapiens, UniProt P49674)
# T1 construct: made in house
# Experiment: Casein Kinase Epsilon 33P-ATP Filter Plate Assay
# Assay type: biochemical
# Description: Casein Kinase Epsilon ^33P-ATP Filter Plate Assay for Screening CKIε Inhibitors
# Purpose: This assay measures the ability of compounds to inhibit the phosphorylation of the substrate casein by the enzyme casein kinase 1ε using an in vitro ^33P-ATP filtration assay. […] Materials:
# Equipment: • Beckman Biomek 2000 Liquid Handling Robot • Beckman Multimek 96 Automated 96 Channel Pipettor • Millipore Vacuum Manifold Basic Kit # MAVM0960R • Titertek Multidrop Liquid Dispenser • Packard TopCount NXT Liquid Scintillation Counter
# Enzyme: • Casein Kinase 1ε final concentration 0.58 mg/ml obtained from fermentation and purification processes as are well known to one skilled in the art. The above are stored as 100 μL aliquots at minus 80° C.
# Compounds: • Supply compounds for testing as frozen 10 mM compound stock dissolved in 100% DMSO. Assay Conditions:
# Final total assay volume per well is equal to 50 μL that one prepares as follows: • 5 μL of diluted compound stock (10, 1, 0.1, 0.01 or 0.001 μM), • 5 μL of dephosphorylated casein final concentration 0.2 μg/μL, • 20 μL of CK1ε final concentration 3 ng/μL, and • 20 μL of γ-^33P-ATP final concentration 0.02 μCi/μL mixed with cold ATP (10 μM final). Methodology: • 1. Prepare 500 mL of fresh assay buffer: 50 mM Tris pH 7.5, 10 mM MgCl2, 2 mM DTT and 1 mM EGTA • 2. Obtain compounds to be evaluated as 10 μL of 10 mM stock dissolved in 100% DMSO. Use a Biomek 2000 liquid handling robot, make serial dilutions to yield 10, 1, 0.1, 0.01 and 0.001 μM final compound dilutions added as 5 μL additions to Falcon U bottom plates. […] A routine screening assay will consist of 32 compounds, which equals 4 assay plates. • 3. Assay plate maps are set up according to the following pattern CK1ePlateMap.xls
# • 4. Add 5 μL of compound as indicated, then add 5 μL of dephosphorylated casein (dissolved in distilled H20)(0.2 μg/μL) and 20 μL CK1ε (3 ng/μL) to the appropriate wells. • 5. Finally add 20 μL γ-^33P-ATP (0.02 μCi/μL)/10 μM cold ATP (equals approximately 2×10^6 CPM per well). • 6. Vortes the Falcon U-Bottom assay plate containing the above 50 μL reaction volume and then incubate at room temperature for 2 hours. • 7. At the end of 2 hours, stop the reaction by the addition of 65 μL of ice cold 2 mM cold ATP (made up in assay buffer) to the assay plates using a Beckman Multimek. • 8. At the same time add 25 μL 100% ice cold TCA made up in distilled H20 to a matching number of Millipore MAPH filter plates. • 9. Using a handheld 8-channel pipettor, transfer 100 μL of the reaction mixture from the Falcon U-Bottom Plate to the Millipore MAPH filter plates presoaked with TCA. • 10. Mix the Millipore MAPH filter plates gently and allow to sit at room temperature for at least 30 minutes to precipitate the proteins. • 11. After 30 minutes, place the filter plates on a Millipore vacuum manifold and filter at no more than 8 mm Hg as the MAPH filters tend to “air lock” at higher vacuum settings. • 12. Wash the filter plates sequentially and filter with 2×150 μL 20% TCA, 2×150 μL 10% TCA and 2×150 μL 5% TCA (total of 6 washes per plate/900 μL per well). • 13. Allow the plates to dry overnight at room temperature. The next day add 40 μL Packard Microscint-20 Scintillation Fluid per well using a Titertek Multidrop dispenser; seal the plates and count for 2 minutes/well in a Packard Topcount NXT Scintillation Counter (to provide CPM values/well). Calculation: • 1. Import Counts Per Minute (CPM) data into a proprietary data calculation and archiving database (Activity Base by IDBS version 5.0). • 2. Column 1 for each plate reflects total phosphorylation activity of the enzyme in the absence of any inhibiting compound and thus represents 100%. Column 12 reflects any nonspecific phosphorylation/retained radioactivity activity in the absence of inhibiting compound and enzyme.
# T1 sequence (P49674 whole entry): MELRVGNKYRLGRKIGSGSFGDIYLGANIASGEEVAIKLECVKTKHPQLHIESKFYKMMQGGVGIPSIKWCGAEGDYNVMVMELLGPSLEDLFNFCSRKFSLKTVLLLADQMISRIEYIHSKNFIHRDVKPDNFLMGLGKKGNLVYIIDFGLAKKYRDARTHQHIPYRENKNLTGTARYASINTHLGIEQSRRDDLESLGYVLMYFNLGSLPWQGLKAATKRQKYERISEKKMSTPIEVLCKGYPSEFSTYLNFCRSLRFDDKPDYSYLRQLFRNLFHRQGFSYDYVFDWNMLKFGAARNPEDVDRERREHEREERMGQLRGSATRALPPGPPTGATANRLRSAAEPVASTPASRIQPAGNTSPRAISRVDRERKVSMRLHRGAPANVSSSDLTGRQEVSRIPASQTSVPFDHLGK
row,Ki [nM],Structure (SMILES)
1,64,"NC(=O)c1[nH]c2sccc2c1Sc1ccccn1 [IIa, 4-(pyridin-2-ylsulfanyl)-6H-thieno[2,3-b]pyrrole-5-carboxylic acid amide]"
2,1070,"NC(=O)c1[nH]c2sccc2c1Sc1ccncc1 [IId, 4-(Pyridin-4-ylsulfanyl)-6H-thieno[2,3-b]-pyrrole-5-carboxylic acid amide]"
3,109,"NC(=O)c1[nH]c2sccc2c1Sc1cc(Cl)cc(Cl)c1 [IIe, 4-(3,5-Dichlorophenyl-sulfanyl)-6H-thieno[2,3-b]pyrrole-5-carboxylic acid amide]"
4,1450,"NC(=O)c1[nH]c2sccc2c1Sc1cccs1 [IIf, 4-(Thiophen-2-yl-sulfanyl)-6H-thieno[2,3-b]pyrrole-5-carboxylic acid amide]"
5,24.7,"COc1cccc(Sc2c(C(N)=O)[nH]c3sccc23)c1 [IIh, 4-(3-Methoxyphenyl-sulfanyl)-6H-thieno[2,3-b]pyrrole-5-carboxylic acid amide]"
6,112,"NC(=O)c1[nH]c2sccc2c1Sc1cccc(Cl)c1 [IIj, 4-(3-Chlorophenyl-sulfanyl)-6H-thieno[2,3-b]pyrrole-5-carboxylic acid amide]"
7,70.6,"Cc1cccc(Sc2c(C(N)=O)[nH]c3sccc23)c1 [IIk, 4-(3-Methylphenyl-sulfanyl)-6H-thieno[2,3-b]pyrrole-5-carboxylic acid amide]"
8,68,"COc1cccc(Sc2c(C(N)=O)[nH]c3sc(C)nc23)c1 [IIm, 6-(3-Methoxyphenyl-sulfanyl)-2-methyl-4H-pyrrolo[3,2-d]thiazole-5-carboxylic acid amide]"
9,4030,"Cc1nc2c(Sc3cccc(OC(F)(F)F)c3)c(C(N)=O)[nH]c2s1 [IIp, 6-(3-Trifluoromethoxy-phenylsulfanyl)-2-methyl-4H-pyrrolo[3,2-d]thiazole-5-carboxylic acid amide]"
10,334,"NC(=O)c1[nH]c2sc(Sc3ccccc3)nc2c1Sc1ccccc1 [IIq, 2,6-Bis-phenylsulfanyl-4H-pyrrolo[3,2-d]thiazole-5-carboxylic acid amide]"
11,333,"COc1cccc(Sc2nc3c(Sc4cccc(OC)c4)c(C(N)=O)[nH]c3s2)c1 [IIr, 2,6-Bis-(3-methoxy-phenylsulfanyl)-4H-pyrrolo[3,2-d]thiazole-5-carboxylic acid amide]"
12,544,"NC(=O)c1[nH]c2ccsc2c1Sc1ccccc1 [Ia, 6-Phenylsulfanyl-4H-thieno[3,2-b]pyrrole-5-carboxylic acid amide]"
13,157,"NC(=O)c1[nH]c2ccsc2c1Sc1cccc(F)c1 [Ib, 6-(3-Fluorophenyl-sulfanyl)-4H-thieno[3,2-b]pyrrole-5-carboxylic acid amide]"
14,> 10000,"NC(=O)c1[nH]c2ccsc2c1Sc1ccc(Cl)cc1 [Ic, 6-(4-Chlorophenyl-sulfanyl)-4H-thieno[3,2-b]pyrrole-5-carboxylic acid amide]"
15,159,"NC(=O)c1[nH]c2ccsc2c1Sc1ccccn1 [Ie, 6-(Pyridin-2-ylsulfanyl)-4H-thieno[3,2-b]pyrrole-5-carboxylic acid amide]"
16,3090,"Cc1ccc(Sc2c(C(N)=O)[nH]c3ccsc23)cc1 [If, 6-p-Tolylsulfanyl-4H-thieno[3,2-b]pyrrole-5-carboxylic acid amide]"
17,915,"NC(=O)c1[nH]c2ccsc2c1Sc1cccs1 [Ig, 6-(Thiophen-2-yl-sulfanyl)-4H-thieno[3,2-b]pyrrole-5-carboxylic acid amide]"

row,Ki [nM],Structure (SMILES)
1,71,"NC(=O)c1[nH]c2ccsc2c1Sc1cc(Cl)cc(Cl)c1 [Ih, 6-(3,5-Dichloro-phenylsulfanyl)-4H-thieno[3,2-b]pyrrole-5-carboxylic acid amide]"
2,1680,"NC(=O)c1[nH]c2ccsc2c1Sc1ccncc1 [Ii, 6-(Pyridin-4-ylsulfanyl)-4H-thieno[3,2-b]pyrrole-5-carboxylic acid amide]"
3,116,"Cc1cccc(Sc2c(C(N)=O)[nH]c3ccsc23)c1 [Ij, 6-m-Tolylsulfanyl-4H-thieno[3,2-b]pyrrole-5-carboxylic acid amide]"
4,468,"Cc1ccccc1Sc1c(C(N)=O)[nH]c2ccsc12 [Ik, 6-o-Tolylsulfanyl-4H-thieno[3,2-b]pyrrole-5-carboxylic acid amide]"
5,324,"NC(=O)c1[nH]c2ccsc2c1Sc1cccc(Cl)c1Cl [Il, 6-(2,3-Dichloro-phenylsulfanyl)-4H-thieno[3,2-b]pyrrole-5-carboxylic acid amide]"
6,1270,"NC(=O)c1[nH]c2ccsc2c1Sc1cc(Cl)ccc1Cl [Im, 6-(2,5-Dichloro-phenylsulfanyl)-4H-thieno[3,2-b]pyrrole-5-carboxylic acid amide]"
7,238,"CCc1ccccc1Sc1c(C(N)=O)[nH]c2ccsc12 [In, 6-(2-Ethylphenylsulfanyl)-4H-thieno[3,2-b]pyrrole-5-carboxylic acid amide]"
8,78.7,"NC(=O)c1[nH]c2ccsc2c1Sc1cccc(Br)c1 [Io, 6-(3-Bromo-phenylsulfanyl)-4H-thieno-[3,2-b]pyrrole-5-carboxylic acid amide]"
9,357,"Cc1cc(C)cc(Sc2c(C(N)=O)[nH]c3ccsc23)c1 [Ip, 6-(3,5-Dimethylphenylsulfanyl)-4H-thieno[3,2-b]pyrrole-5-carboxylic acid amide]"
10,38,"COc1cccc(Sc2c(C(N)=O)[nH]c3ccsc23)c1 [Iq, 6-(3-Methoxy-phenylsulfanyl)-4H-thieno[3,2-b]pyrrole-5-carboxylic acid amide]"
11,331,"COc1ccccc1Sc1c(C(N)=O)[nH]c2ccsc12 [Ir, 6-(2-Methoxy-phenylsulfanyl)-4H-thieno[3,2-b]pyrrole-5-carboxylic acid amide]"
12,481,"NC(=O)c1[nH]c2ccsc2c1Sc1ccccc1C(F)(F)F [Is, 6-(2-Trifluoromethyl-phenylsulfanyl)-4H-thieno[3,2-b]pyrrole-5-carboxylic acid amide]"
13,425,"NC(=O)c1[nH]c2ccsc2c1Sc1ccccc1F [It, 6-(2-Fluoro-phenylsulfanyl)-4H-thieno[3,2-b]pyrrole-5-carboxylic acid amide]"
14,562,"NC(=O)c1[nH]c2ccsc2c1Sc1cccc(OC(F)(F)F)c1 [Iu, 6-(3-Trifluoromethoxy-phenylsulfanyl)-4H-thieno[3,2-b]pyrrole-5-carboxylic acid amide]"
15,4550,"NC(=O)c1[nH]c2ncsc2c1Sc1ccccc1 [Iv, 6-Phenylsulfanyl-4H-pyrrolo[2,3-d]thiazole-5-carboxylic acid amide]"
16,2030,"NC(=O)c1[nH]c2ncsc2c1Sc1cccc(F)c1 [Iw, 6-(3-Fluoro-phenylsulfanyl)-4H-pyrrolo[2,3-d]thiazole-5-carboxylic acid amide]"
17,1750,"NC(=O)c1[nH]c2ncsc2c1Sc1ccccn1 [Ix, 6-(Pyridin-2-ylsulfanyl)-4H-pyrrolo[2,3-d]thiazole-5-carboxylic acid amide]"

# — US7652046B2, “Substituted thienopyrrole carboxylic acid amides, pyrrolothiazole carboxylic acid amides, and related analogs as inhibitors of casein kinase I” (Aventis Pharmaceuticals Inc., priority 2004, dated 2010)
